From patent US7109243B2 (IRM LLC, priority 2003, dated 2006) come the findings set out here.

Structures are written as SMILES.

One assay addresses Cathepsin S (Homo sapiens, UniProt P25774). Briefly: Cathepsin S inhibition assay (fluorogenic peptide substrate). In kind it is biochemical. Conditions: Table II, compounds of Formula I; read-out: Ki Cat. S. The procedure, abridged: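 Ki values come from nonlinear fitting of inhibited hydrolysis rates, taking free and total inhibitor concentrations as equal. Rates measured as rising fluorescence at 380/450 nm after reaction start with 50 μM final acetyl-HPVK-aminocarbamoylcoumarin.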

The next assay deals with T1, Cathepsin K (Homo sapiens, UniProt P43235).
T1 sequence (P43235 115-329): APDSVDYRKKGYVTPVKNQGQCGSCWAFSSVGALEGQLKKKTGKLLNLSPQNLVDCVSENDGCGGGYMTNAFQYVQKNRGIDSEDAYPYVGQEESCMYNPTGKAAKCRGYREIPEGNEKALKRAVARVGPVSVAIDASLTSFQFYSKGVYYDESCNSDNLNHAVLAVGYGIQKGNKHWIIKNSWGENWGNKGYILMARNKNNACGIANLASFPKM
The experiment in a line: Cathepsin K inhibition assay (fluorogenic peptide substrate); selectivity ratio vs cathepsin S. In kind it is biochemical. Conditions: ratio of cathepsin K inhibition constant to cathepsin S inhibition constant; Table II. A digest of the protocol:
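Inhibition constants for competitive inhibitors come from apparent values fitted to enzyme progress curves. Substrate, acetyl-Lys-His-Pro-Lys-aminocarbamoylcoumarin (40 μM final), starts the reaction; fluorescence rise read at 380 nm excitation, 450 nm emission. Selectivity ratio: other cathepsin constant over cathepsin S constant.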

Sequence of Cathepsin S (P25774 115-331, species assumed): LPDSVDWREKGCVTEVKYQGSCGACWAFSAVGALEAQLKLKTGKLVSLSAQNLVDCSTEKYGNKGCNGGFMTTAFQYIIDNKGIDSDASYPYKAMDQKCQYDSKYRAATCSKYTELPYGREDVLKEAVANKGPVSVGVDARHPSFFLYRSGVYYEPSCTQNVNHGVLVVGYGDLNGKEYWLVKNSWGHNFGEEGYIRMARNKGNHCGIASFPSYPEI

For `O=C(Cc1ccc(F)cc1Cl)N[C@@H](CC1CCCCC1)C(=O)NCCNc1ccc(F)cc1` [Compound 107, 2-(S)-[2-(2-Chloro-4-fluoro-phenyl)-acetylamino]-3-cyclohexyl-N-[2-(4-fluoro-phenylamino)-ethyl]-propionamide], the Ki – broadly, the dissociation constant of the complex between target and ligand, obtained from inhibition or displacement – at Cathepsin S is less than 100 nM. The “Selectivity for Cat. S over Cat. K” value at Cathepsin K is on record as “+++ (+++, >1000)”.

In the case of `COc1ccc(NCCNC(=O)[C@H](CC2CCCCC2)NC(=O)c2cccc(C)c2Cl)cc1` [Compound 108, (S)-2-Chloro-N-{2-cyclohexyl-1-[2-(4-methoxy-phenylamino)-ethylcarbamoyl]-ethyl}-3-methyl-benzamide], the Ki at Cathepsin S was less than 100 nM. In addition, the “Selectivity for Cat. S over Cat. K” value on Cathepsin K was “++ (++, >100)”.

`COc1ccc(NCCNC(=O)[C@H](CC2CCCCC2)NC(=O)c2ccc(OCc3ccccc3)cc2)cc1` [Compound 109, (S)-4-Benzyloxy-N-{2-cyclohexyl-1-[2-(4-methoxy-phenylamino)-ethylcarbamoyl]-ethyl}-benzamide]: the Ki at Cathepsin S is less than 100 nM. Besides, the “Selectivity for Cat. S over Cat. K” value on Cathepsin K is on record as “+++ (+++, >1000)”.

`COc1ccc(NCCNC(=O)[C@H](CC2CCCCC2)NC(=O)c2cc(C)c(OCc3ccccc3)c(C)c2)cc1` [Compound 110, (S)-4-Benzyloxy-N-{2-cyclohexyl-1-[2-(4-methoxy-phenylamino)-ethylcarbamoyl]-ethyl}-3,5-dimethyl-benzamide]: the inhibition constant (Ki) on Cathepsin S was less than 100 nM. In addition, on Cathepsin K, the “Selectivity for Cat. S over Cat. K” value was “++ (++, >100)”.

As to `COc1ccc(NCCNC(=O)[C@H](CC2CCCCC2)NC(=O)c2cc(C)c(OC)c(C)c2)cc1` [Compound 111, (S)-N-{2-Cyclohexyl-1-[2-(4-methoxy-phenylamino)-ethylcarbamoyl]-ethyl}-4-methoxy-3,5-dimethyl-benzamide], the Ki at Cathepsin S was less than 100 nM. For the same compound, on Cathepsin K, the “Selectivity for Cat. S over Cat. K” value is listed as “++ (++, >100)”.

For the compound `COc1ccc(NCCNC(=O)[C@H](CC2CCCCC2)NC(=O)c2ccc(C)c(Br)c2)cc1` [Compound 112, (S)-3-Bromo-N-{2-cyclohexyl-1-[2-(4-methoxy-phenylamino)-ethylcarbamoyl]-ethyl}-4-methyl-benzamide], on Cathepsin S, the Ki was less than 100 nM. In addition, the “Selectivity for Cat. S over Cat. K” value at Cathepsin K is “++ (++, >100)”.

As for `COc1ccc(NCCNC(=O)[C@H](CC2CCCCC2)NC(=O)c2cc3cc(F)ccc3[nH]2)cc1` [Compound 113, (S)-5-Fluoro-1H-indole-2-carboxylic acid {2-cyclohexyl-1-[2-(4-methoxy-phenylamino)-ethylcarbamoyl]-ethyl}-amide], the Ki on Cathepsin S was less than 100 nM. Further, the “Selectivity for Cat. S over Cat. K” value at Cathepsin K is recorded as “+ (+, >10)”.

As for `COc1ccc(NCCNC(=O)[C@H](CC2CCCCC2)NC(=O)c2sc(N)nc2C)cc1` [Compound 114, (S)-2-Amino-4-methyl-thiazole-5-carboxylic acid {2-cyclohexyl-1-[2-(4-methoxy-phenylamino)-ethylcarbamoyl]-ethyl}-amide], the inhibitory constant (Ki) on Cathepsin S is less than 100 nM. Besides, the “Selectivity for Cat. S over Cat. K” value on Cathepsin K is listed as “++ (++, >100)”.

Regarding `COc1ccc(NCCNC(=O)[C@H](CC2CCCCC2)NC(=O)c2cnn(-c3ccccc3)c2C(F)(F)F)cc1` [Compound 115, (S)-1-Phenyl-5-trifluoromethyl-1H-pyrazole-4-carboxylic acid {2-cyclohexyl-1-[2-(4-methoxy-phenylamino)-ethylcarbamoyl]-ethyl}-amide], the Ki at Cathepsin S was less than 100 nM. In addition, at Cathepsin K, the “Selectivity for Cat. S over Cat. K” value was “+++ (+++, >1000)”.

For the compound `COc1ccc(NCCNC(=O)[C@H](CC2CCCCC2)NC(=O)c2cnn(-c3ccc(Cl)cc3)c2C(F)(F)F)cc1` [Compound 116, (S)-1-(4-Chloro-phenyl)-5-trifluoromethyl-1H-pyrazole-4-carboxylic acid {2-cyclohexyl-1-[2-(4-methoxy-phenylamino)-ethylcarbamoyl]-ethyl}-amide], the Ki on Cathepsin S was less than 100 nM. In addition, the “Selectivity for Cat. S over Cat. K” value at Cathepsin K was “+++ (+++, >1000)”.

`COc1ccc(NCCNC(=O)[C@H](CC2CCCCC2)NC(=O)c2cccc(Cl)c2)cc1` [Compound 118, (S)-3-Chloro-N-{2-cyclohexyl-1-[2-(4-methoxy-phenylamino)-ethylcarbamoyl]-ethyl}-benzamide]: the Ki at Cathepsin S is less than 100 nM. Also, at Cathepsin K, the “Selectivity for Cat. S over Cat. K” value is reported as “++ (++, >100)”.

Consider `COc1ccc(NCCNC(=O)[C@H](CC2CCCCC2)NC(=O)c2cccc(N(C)C)c2)cc1` [Compound 119, (S)-N-{2-Cyclohexyl-1-[2-(4-methoxy-phenylamino)-ethylcarbamoyl]-ethyl}-3-dimethylamino-benzamide], for which, at Cathepsin S, the Ki is less than 100 nM. Also, the “Selectivity for Cat. S over Cat. K” value on Cathepsin K is on record as “+ (+, >10)”.

As for `COc1ccc(NCCNC(=O)[C@H](CC2CCCCC2)NC(=O)c2cccc(C#N)c2)cc1` [Compound 120, (S)-3-Cyano-N-{2-cyclohexyl-1-[2-(4-methoxy-phenylamino)-ethylcarbamoyl]-ethyl}-benzamide], at Cathepsin S, the Ki is less than 100 nM. Besides, the “Selectivity for Cat. S over Cat. K” value at Cathepsin K is given as “++ (++, >100)”.

Consider `COc1ccc(NCCNC(=O)[C@H](CC2CCCCC2)NC(=O)c2ccc(C#N)cc2)cc1` [Compound 121, (S)-4-Cyano-N-{2-cyclohexyl-1-[2-(4-methoxy-phenylamino)-ethylcarbamoyl]-ethyl}-benzamide], for which the Ki on Cathepsin S was less than 100 nM. For the same compound, on Cathepsin K, the “Selectivity for Cat. S over Cat. K” value was “+ (+, >10)”.

Consider `C[C@@H](C(=O)N[C@@H](CC1CCCCC1)C(=O)NCCNc1ccc(OC(F)(F)F)cc1)c1ccccc1` [Compound 122, N-{2-cyclohexyl-1-(S)-[2-(4-trifluoromethoxy-phenylamino)-ethylcarbamoyl]-ethyl}-2-(R)-phenyl-propionamide], for which, at Cathepsin S, the inhibitory constant (Ki) is less than 100 nM. Besides, the “Selectivity for Cat. S over Cat. K” value on Cathepsin K was “+++ (+++, >1000)”.

Turning to `COc1ccc(NCCNC(=O)[C@H](CC2CCCCC2)NC(=O)c2cccc(-c3csc(C)n3)c2)cc1` [Compound 123, (S)-N-{2-Cyclohexyl-1-[2-(4-methoxy-phenylamino)-ethylcarbamoyl]-ethyl}-3-(2-methyl-thiazol-4-yl)-benzamide], at Cathepsin S, the inhibition constant Ki was less than 100 nM. For the same compound, the “Selectivity for Cat. S over Cat. K” value on Cathepsin K is “++ (++, >100)”.

For `O=C(Cc1cc(F)cc(F)c1)N[C@@H](CC1CCCCC1)C(=O)NCCNc1ccc(F)cc1` [Compound 125, 3-Cyclohexyl-2-(S)-[2-(3,5-difluoro-phenyl)-acetylamino]-N-[2-(4-fluoro-phenylamino)-ethyl]-propionamide], the Ki at Cathepsin S is less than 100 nM. In addition, the “Selectivity for Cat. S over Cat. K” value on Cathepsin K was “++ (++, >100)”.

As for `COc1ccc(NCCNC(=O)[C@H](CCC2CCCCC2)NC(=O)c2cccc(C(F)(F)F)c2)cc1` [Compound 126, (S)-N-{3-Cyclohexyl-1-[2-(4-methoxy-phenylamino)-ethylcarbamoyl]-propyl}-3-trifluoromethyl-benzamide], on Cathepsin S, the Ki was less than 100 nM. For the same compound, the “Selectivity for Cat. S over Cat. K” value at Cathepsin K is “+++ (+++, >1000)”.

As to `COc1ccc(NCCNC(=O)[C@H](CCC2CCCCC2)NC(=O)c2ccc(N3CCOCC3)cc2)cc1` [Compound 127, (S)-N-{3-Cyclohexyl-1-[2-(4-methoxy-phenylamino)-ethylcarbamoyl]-propyl}-4-morpholin-4-yl-benzamide], on Cathepsin S, the inhibition constant Ki is less than 1000 nM. Also, the “Selectivity for Cat. S over Cat. K” value at Cathepsin K is given as “++ (++, >100)”.

As for `COc1ccc(NCCNC(=O)[C@H](CCC2CCCCC2)NC(=O)[C@@H](C)c2ccccc2)cc1` [Compound 128], the inhibitory constant (Ki) at Cathepsin S is less than 100 nM. Besides, the “Selectivity for Cat. S over Cat. K” value at Cathepsin K was “+++ (+++, >1000)”.
